Drawing on ChEMBL document CHEMBL3046848, “Synthesis and biological evaluation of novel series of thieno[2,3-d]pyrimidine derivatives as anticancer and antimicrobial agents” (2013), this text covers zone of inhibition and MIC for 31 compounds.

Converted amounts (≈) assume the structure as drawn.

For orientation: MIC means the least concentration at which growth counts as inhibited.

Holding throughout (assay type): functional
Assay [1] concerns Escherichia coli. As to the kind of experiment: Antimicrobial activity against Escherichia coli ATCC8739 assessed as diameter of growth inhibition zone at 1 mg/ml after 24 hr by agar cup diffusion method. Particulars: ATCC8739, 24 h, read-out: IZ.
Assay [2] has as its system Staphylococcus aureus. As to the kind of experiment: Antimicrobial activity against Staphylococcus aureus ATCC6538P assessed as diameter of growth inhibition zone at 1 mg/ml after 24 hr by agar cup diffusion method. The conditions noted are these: read-out: IZ.
The subject of assay [3] is Escherichia coli. As to the kind of experiment: Antimicrobial activity against Escherichia coli ATCC8739 assessed as growth inhibition after 48 hr by two-fold serial dilution method. Particulars: ATCC8739, 48 h.
Assay [4] relates to Candida albicans. Description: Antimicrobial activity against Candida albicans ATCC2091 assessed as diameter of growth inhibition zone at 1 mg/ml after 48 hr by agar cup diffusion method. Particulars: ATCC2091, 48 h, read-out: IZ.
Assay [5] deals with Pseudomonas aeruginosa. As to the kind of experiment: Antimicrobial activity against Pseudomonas aeruginosa ATCC9027 assessed as diameter of growth inhibition zone at 1 mg/ml after 24 hr by agar cup diffusion method. The conditions noted are these: ATCC9027, 24 h, read-out: IZ.
Assay [6] deals with Pseudomonas aeruginosa. As to the kind of experiment: Antimicrobial activity against Pseudomonas aeruginosa ATCC9027 assessed as growth inhibition after 48 hr by two-fold serial dilution method. Particulars: ATCC9027, 48 h.
Assay [7] concerns Staphylococcus aureus. As to the kind of experiment: Antimicrobial activity against Staphylococcus aureus ATCC6538P assessed as growth inhibition after 48 hr by two-fold serial dilution method.
For assay [8], the system named is Candida albicans. As to the kind of experiment: Antimicrobial activity against Candida albicans ATCC2091 assessed as growth inhibition after 48 hr by two-fold serial dilution method. Particulars: ATCC2091, 48 h.

For `CCCn1cnc2sc(C(N)=O)c(C)c2c1=O`, the zone of inhibition at 1000 µg/mL in the assay on Escherichia coli [1] is 17 mm; in the assay on Staphylococcus aureus [2] it was 10 mm; in the assay on Candida albicans [4], 15 mm; in the assay on Pseudomonas aeruginosa [5], 12 mm. In addition, the MIC in the assay on Escherichia coli [3] came out at 125 µg/mL (≈ 497 µM).
Regarding `Cc1c(C(N)=O)sc2ncn(-c3ccccn3)c(=O)c12`, the zone of inhibition at 1000 µg/mL in the assay with Escherichia coli [1] came to 13 mm; in the assay with Staphylococcus aureus [2], 10 mm; in the assay on Candida albicans [4], 15 mm; in the assay on Pseudomonas aeruginosa [5], 12 mm.
Taken in the same sequence, the figures for `Cc1c(C(N)=O)sc2nc(SCc3ccccc3)n(-c3ccccc3)c(=O)c12` were 15 mm, 10 mm, 15 mm and 12 mm.
In the same order, the values of `Cc1c(C(N)=O)sc2nc(S(C)(=O)=O)n(-c3ccccc3)c(=O)c12` are 16 mm, 11 mm, 15 mm and 12 mm.
Taken in the same sequence, the figures for `CCS(=O)(=O)c1nc2sc(C(N)=O)c(C)c2c(=O)n1-c1ccccc1` were 13 mm, 10 mm, 15 mm and 12 mm.
For the compound `Cc1c(C(N)=O)sc2nc(S(=O)(=O)Cc3ccccc3)n(-c3ccccc3)c(=O)c12`, the zone of inhibition at 1000 µg/mL with Escherichia coli [1] came to 15 mm; in the assay with Staphylococcus aureus [2], 10 mm; in the assay with Candida albicans [4], 15 mm; in the assay on Pseudomonas aeruginosa [5] it was 12 mm.
Regarding `Cc1c(C(N)=O)sc2nc(SCC3CO3)n(-c3ccccc3)c(=O)c12` (centres undefined), the zone of inhibition at 1000 µg/mL turned out to be 15 mm with Escherichia coli [1], 10 mm with Staphylococcus aureus [2], 15 mm in the assay on Candida albicans [4] and 17 mm in the assay with Pseudomonas aeruginosa [5]. Moreover, the MIC with Pseudomonas aeruginosa [6] came to 125 µg/mL (≈ 335 µM).
`Cc1c(C(N)=O)sc2nc(SCC(O)CN3CCOCC3)n(-c3ccccc3)c(=O)c12` (centres undefined): the zone of inhibition at 1000 µg/mL is 13 mm in the assay on Escherichia coli [1], 10 mm with Staphylococcus aureus [2], 15 mm with Candida albicans [4] and 12 mm in the assay on Pseudomonas aeruginosa [5].
Taken in the same sequence, the figures for `Cc1c(C(N)=O)sc2nc(SCC(O)CN3CCCCC3)n(-c3ccccc3)c(=O)c12` (centres undefined) were 15 mm, 10 mm, 15 mm and 12 mm.
In the same order, the values of `Cc1c(C(N)=O)sc2nc(C)n(NC(=S)NCc3ccccc3)c(=O)c12` are 13 mm, 12 mm, 15 mm and 12 mm.
On to `Cc1c(C(N)=O)sc2nc(C)n(/N=c3\scc(-c4ccc(Cl)cc4)n3-c3ccccc3)c(=O)c12`, for which the zone of inhibition at 1000 µg/mL in the assay with Escherichia coli [1] is 16 mm; in the assay with Staphylococcus aureus [2], 10 mm; in the assay with Candida albicans [4], 15 mm; in the assay with Pseudomonas aeruginosa [5], 12 mm. For the same compound, the minimal inhibitory concentration (MIC) in the assay with Escherichia coli [3] was 125 µg/mL (≈ 246 µM).
As for `Cc1c(C(N)=O)sc2nc(C)n(/N=c3\scc(-c4ccc(Br)cc4)n3-c3ccccc3)c(=O)c12`, the zone of inhibition at 1000 µg/mL in the assay with Escherichia coli [1] came to 15 mm; with Staphylococcus aureus [2], 10 mm; in the assay on Candida albicans [4] it was 15 mm; in the assay on Pseudomonas aeruginosa [5] it was 12 mm.
`Cc1c(C(N)=O)sc2nc(C)n(/N=c3\scc(-c4ccc(Cl)cc4)n3Cc3ccccc3)c(=O)c12`: the zone of inhibition at 1000 µg/mL was found to be 15 mm with Escherichia coli [1], 10 mm with Staphylococcus aureus [2], 15 mm in the assay with Candida albicans [4] and 17 mm in the assay on Pseudomonas aeruginosa [5]. Also, in the assay with Pseudomonas aeruginosa [6], the minimum inhibitory concentration (MIC) stood at 125 µg/mL (≈ 239 µM).
As to `Cc1c(C(N)=O)sc2nc(C)n(/N=c3\scc(-c4ccc(Br)cc4)n3Cc3ccccc3)c(=O)c12`, the zone of inhibition at 1000 µg/mL was determined as 15 mm with Escherichia coli [1], 11 mm with Staphylococcus aureus [2], 15 mm with Candida albicans [4] and 12 mm in the assay on Pseudomonas aeruginosa [5].
Turning to `Cc1c(C(N)=O)sc2nc(C)n(/N=C3\SCC(=O)N3c3ccccc3)c(=O)c12`, the zone of inhibition at 1000 µg/mL in the assay on Escherichia coli [1] turned out to be 15 mm; in the assay with Staphylococcus aureus [2] it was 14 mm; with Candida albicans [4], 16 mm; in the assay on Pseudomonas aeruginosa [5], 12 mm. Also, the minimum inhibitory concentration (MIC) in the assay with Staphylococcus aureus [7] was determined as 250 µg/mL (≈ 605 µM).
In the same order, the values of `Cc1c(C(N)=O)sc2nc(C)n(/N=C3\SCC(=O)N3Cc3ccccc3)c(=O)c12` are 15 mm, 14 mm, 16 mm, 12 mm and 250 µg/mL (≈ 585 µM).
In the case of `Cc1c(C(N)=O)sc2nc(S)n(-c3ccccc3)c(=O)c12`, the zone of inhibition at 1000 µg/mL with Escherichia coli [1] was found to be 15 mm; with Staphylococcus aureus [2] it was 12 mm; with Candida albicans [4], 15 mm; in the assay on Pseudomonas aeruginosa [5] it was 12 mm.
Take `Cc1c(C(N)=O)sc2nc(SCC(=O)Nc3ccccc3)n(-c3ccccc3)c(=O)c12`: the zone of inhibition at 1000 µg/mL in the assay on Escherichia coli [1] amounted to 15 mm; in the assay on Staphylococcus aureus [2] it was 10 mm; in the assay on Candida albicans [4] it was 15 mm; in the assay on Pseudomonas aeruginosa [5], 12 mm.
`Cc1ccc(NC(=O)CSc2nc3sc(C(N)=O)c(C)c3c(=O)n2-c2ccccc2)cc1`: the zone of inhibition at 1000 µg/mL with Escherichia coli [1] stood at 15 mm; in the assay with Staphylococcus aureus [2] it was 10 mm; with Candida albicans [4], 15 mm; in the assay with Pseudomonas aeruginosa [5], 12 mm.
As to `CC(=O)CSc1nc2sc(C(N)=O)c(C)c2c(=O)n1-c1ccccc1`, the zone of inhibition at 1000 µg/mL was 15 mm with Escherichia coli [1], 13 mm in the assay on Staphylococcus aureus [2], 15 mm with Candida albicans [4] and 12 mm with Pseudomonas aeruginosa [5]. For the same compound, the MIC in the assay on Staphylococcus aureus [7] is 250 µg/mL (≈ 669 µM).
`CCOC(=O)CSc1nc2sc(C(N)=O)c(C)c2c(=O)n1-c1ccccc1`: the zone of inhibition at 1000 µg/mL with Escherichia coli [1] was 13 mm; with Staphylococcus aureus [2], 10 mm; in the assay with Candida albicans [4], 15 mm; with Pseudomonas aeruginosa [5] it was 12 mm.
Taken in the same sequence, the figures for `CSc1nc2sc(C(N)=O)c(C)c2c(=O)n1-c1ccccc1` were 13 mm, 10 mm, 15 mm and 12 mm.
Taken in the same sequence, the figures for `CCSc1nc2sc(C(N)=O)c(C)c2c(=O)n1-c1ccccc1` were 16 mm, 10 mm, 15 mm and 12 mm.
For `Cc1c(C(N)=O)sc2nc[nH]c(=O)c12`, the zone of inhibition at 1000 µg/mL in the assay on Escherichia coli [1] worked out at 13 mm; in the assay with Staphylococcus aureus [2] it was 10 mm; with Candida albicans [4], 15 mm; with Pseudomonas aeruginosa [5], 12 mm.
Taken in the same sequence, the figures for `Cc1c(C(N)=O)sc2ncn(Cc3ccccc3)c(=O)c12` were 15 mm, 10 mm, 15 mm and 16 mm.
Turning to `Cc1c(C(N)=O)sc2ncn(C3CCCCC3)c(=O)c12`, the zone of inhibition at 1000 µg/mL in the assay with Escherichia coli [1] turned out to be 17 mm; in the assay on Staphylococcus aureus [2], 10 mm; with Candida albicans [4] it was 15 mm; in the assay on Pseudomonas aeruginosa [5] it was 12 mm. For the same compound, the MIC in the assay with Escherichia coli [3] was 125 µg/mL (≈ 429 µM).
Taken in the same sequence, the figures for `CCOC(=O)c1c(NC(C)=O)sc(C(N)=O)c1C` were 16 mm, 10 mm, 15 mm, 12 mm and 125 µg/mL (≈ 462 µM).
Take `Cc1c(C(N)=O)sc2nc(C)n(N)c(=O)c12`: the zone of inhibition at 1000 µg/mL came to 15 mm in the assay with Escherichia coli [1], 10 mm in the assay on Staphylococcus aureus [2], 15 mm in the assay with Candida albicans [4] and 17 mm with Pseudomonas aeruginosa [5]. The MIC with Pseudomonas aeruginosa [6] was found to be 125 µg/mL (≈ 525 µM).
Turning to `Cc1c(C(N)=O)sc2nc(C)n(NC(=S)Nc3ccccc3)c(=O)c12`, the zone of inhibition at 1000 µg/mL with Escherichia coli [1] is 15 mm; in the assay with Staphylococcus aureus [2], 10 mm; in the assay with Candida albicans [4], 15 mm; with Pseudomonas aeruginosa [5] it was 12 mm.
Regarding `CC1(C)S[C@@H]2[C@H](NC(=O)[C@H](N)c3ccccc3)C(=O)N2[C@H]1C(=O)O` [AMPICILLIN], the results for the zone of inhibition at 1000 µg/mL in the assay on Escherichia coli [1], in the assay on Staphylococcus aureus [2] and with Pseudomonas aeruginosa [5] were 26 mm, 30 mm and 18 mm, respectively. The minimum inhibitory concentration (MIC) in the assay on Escherichia coli [3] stood at 7.81 µg/mL (≈ 22.4 µM); with Staphylococcus aureus [7] it was 3.91 µg/mL (≈ 11.2 µM); with Pseudomonas aeruginosa [6], 125 µg/mL (≈ 358 µM).
For the compound `Clc1ccccc1C(c1ccccc1)(c1ccccc1)n1ccnc1` [CLOTRIMAZOLE], the MIC in the assay with Candida albicans [8] came to 7.81 µg/mL (≈ 22.6 µM). Also, the zone of inhibition at 1000 µg/mL in the assay on Candida albicans [4] came out at 28 mm.
